Experimental data taken from article PMC5688156, “The natural product carolacton inhibits folate-dependent C1 metabolism by targeting FolD/MTHFD” (Nature Communications, 2017).
Values joined by “and” are separate entries in the source; they are usually repeats but may differ in a detail not shown here. Equal entries are not always repeated. Where two headings read alike, the source gives them in different places.

Key:
[1] = target: T1, hsMTHFD1_DC (Homo sapiens, UniProt P11586); test: hsMTHFD1_DC dehydrogenase (DH) enzyme assay; type: biochemical; details: hsMTHFD1 DC301
T1 construct: hsMTHFD1 DC301; His-tag (TEV-cleavable, vector pHis-TEV); made in house; host or cells: E. coli BL21 (DE3)
T1 sequence (P11586 2-291 limits assumed): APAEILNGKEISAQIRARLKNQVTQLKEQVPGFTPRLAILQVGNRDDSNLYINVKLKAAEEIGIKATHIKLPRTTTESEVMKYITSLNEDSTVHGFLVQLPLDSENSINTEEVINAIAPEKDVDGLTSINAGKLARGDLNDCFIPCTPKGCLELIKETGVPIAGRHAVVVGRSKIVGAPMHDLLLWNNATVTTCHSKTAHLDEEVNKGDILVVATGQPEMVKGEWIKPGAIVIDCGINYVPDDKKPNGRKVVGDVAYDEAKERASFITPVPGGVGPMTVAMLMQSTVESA
Method: (§1) (6R,S)-5,10-Methylene-5,6,7,8-tetrahydrofolic acid ((6R,S)-5,10-CH2-THF) calcium salt and (6R,S)-5,10-Methenyl-5,6,7,8-tetrahydrofolic acid ((6R,S)-5,10-CH=THF) chloride were purchased from Schircks Laboratories (Bauma, Switzerland) and used as substrates for FolD dehydrogenase and cyclohydrolase enzyme assays, respectively. Only the R-isomer, which accounts for 50% of (6R,S)-5,10-CH2-THF and (6R,S)-5,10-CH=THF, respectively, is used by the enzyme. (6R,S)-5,10-CH2-THF was dissolved in N2-spargeled basic buffer (50 mM Tris-HCl (pH 8.0), 100 mM β-mercaptoethanol) as described by Varshney et al.[25]. (6R,S)-5,10-CH=THF was dissolved in DMSO as a 100 mM stock solution.
(§2) Because FolD is a bifunctional enzyme, dehydrogenase and cyclohydrolase activities were determined for FolD enzyme kinetics, respectively. The dehydrogenase activity of FolD was assayed for its substrate 5,10-CH2-THF and cofactor NADP^+ (in the case of MTHFD2, NAD^+ was used as the cofactor) based on monitoring the formation of 5,10-CH=THF, while the cyclohydrolase activity of FolD was determined for its substrate 5,10-CH=THF by monitoring the hydrolysis of […]. The enzyme kinetics for the dehydrogenase activity of all FolDs except hsMTHFD1_DC were determined at 30 °C in 50 mM Tris-HCl (pH 7.5), 30 mM β-mercaptoethanol. The hsMTHFD1_DC dehydrogenase activity was measured in 25 mM MOPS (pH 7.3), 30 mM β-mercaptoethanol at 30 °C. To measure the enzyme kinetic constants for 5,10-CH2-THF, for example in the case of ecFolD, the NADP concentration was fixed at 1 mM and the concentration of 5,10-CH2-THF varied from 5 to 1500 μM (R-isomer). Similarly, to measure the kinetic constants of ecFolD for NADP^+, the concentration of 5,10-CH2-THF (R-isomer) was fixed at 1 mM and the concentration of NADP^+ varied from 10 to 1500 μM. For different FolDs, the varied concentration range of substrates could be different. […] To monitor the formation of 5,10-CH=THF, the absorbance of the reaction mixture was monitored at 350 nm in micro UV cuvettes (BRAND, Essex, Connecticut, USA). The concentration of 5,10-CH=THF produced in the reaction was determined using an extinction co-efficient of 0.0249 μM^−1 cm^−1. […] The consumption of 5,10-CH=THF was measured by recording the absorbance of the reactions at 355 nm using the TECAN Infinite 200 PRO equipped with a monochromator. […] The inhibition constants (K i) of carolacton on FolD were determined by measuring the apparent K m when adding certain amounts of carolacton to the enzyme reactions. […] To compare the inhibition effects of carolacton between the different FolDs, the half maximal inhibitory concentration (IC50) of carolacton on the same amount of enzyme was determined for FolDs involved in this study. […]

[2] = target: T2, hsMTHFD2 (Homo sapiens, UniProt P13995); test: hsMTHFD2 dehydrogenase (DH) enzyme assay; type: biochemical
T2 construct: His-tag (vector pHis-TEV) (cleaved yes); made in house; host or cells: E. coli BL21 (DE3)
T2 sequence (P13995 36-350): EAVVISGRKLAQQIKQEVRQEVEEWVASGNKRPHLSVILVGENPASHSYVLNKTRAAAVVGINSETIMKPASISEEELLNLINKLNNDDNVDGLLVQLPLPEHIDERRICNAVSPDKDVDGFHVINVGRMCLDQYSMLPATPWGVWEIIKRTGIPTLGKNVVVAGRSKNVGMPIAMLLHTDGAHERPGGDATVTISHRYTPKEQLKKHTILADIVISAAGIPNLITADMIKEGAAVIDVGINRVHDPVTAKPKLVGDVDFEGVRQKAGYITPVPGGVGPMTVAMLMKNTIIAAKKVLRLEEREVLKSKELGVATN
Method: as §1, §2

[3] = target: T3, ecFolD (Escherichia coli, UniProt P24186); test: ecFolD dehydrogenase (DH) enzyme assay; type: biochemical, E. coli; details: for Ki: carolacton inhibition on DH activity, from apparent KM
T3 construct: His-tag (TEV-cleavable, vector pHis-TEV); made in house; host or cells: E. coli BL21 (DE3)
Method: as §1, §2

[4] = 10 nM enzyme, read-out: IC50, carolacton inhibition on DH activity
[5] = 10 nM enzyme, read-out: IC80, carolacton inhibition on DH activity
[6] = vs 5,10-CH2-THF, read-out: Ki (5,10-CH2-THF), carolacton inhibition on DH activity

**Q.** CO[C@H](CC(=O)O)[C@@H](C)C(=O)[C@H](C)/C=C(\C)[C@H]1OC(=O)[C@H](O)[C@H](O)/C=C/[C@H](C)CCC[C@@H]1C [carolacton] was tested. Which IC50 [1, 4] did it give?
**A.** 38 nM

**Q.** And the IC80 [1, 5]?
**A.** 77.6 nM

**Q.** And the Ki [1, 6]?
**A.** 5.93 nM

**Q.** What about the Ki ([1]; vs NADP+, read-out: Ki (NADP+), carolacton inhibition on DH activity) of the same compound?
**A.** 58.7 nM

**Q.** What about the IC50 [2, 4] of the same compound?
**A.** 6.5 nM

**Q.** What about the IC80 [2, 5] of the same compound?
**A.** 31.7 nM

**Q.** And the Ki ([2]; cofactor is NAD+ in the case of hsMTHFD2, read-out: Ki (NADP+), carolacton inhibition on DH activity)?
**A.** 16.7 nM

**Q.** And the Ki [2, 6]?
**A.** 6.42 nM

**Q.** What about the IC50 [3] of the same compound?
**A.** 15.5 nM

**Q.** And the Ki ([3]; Ki (5,10-CH2-THF), competitive vs substrate 5,10-CH2-THF)?
**A.** 21 nM and 21.3 nM

**Q.** What about the Ki ([3]; Ki (NADP+), competitive vs cofactor NADP+) of the same compound?
**A.** 11 nM and 10.9 nM

**Q.** What about the IC80 ([3]; read-out: IC80, carolacton inhibition on DH activity) of the same compound?
**A.** 52.2 nM
